This assay deals with 994946-033-R-J1-PDC complex spheroid viability. As to the kind of experiment: Anticancer human tumor 994946-033-R-J1-PDC patient-derived melanoma cell line growth inhibition [POLQ]. Particulars: for viability, T/C: stronger effect = lower value. The method, then:
Multicellular complex tumor spheroid response to Polymerase (POL) inhibitors (novobiocin, ART-558, RP6685) in combination with a variety of drugs and investigational agents in selected tumor cell lines
The POL inhibitors (novobiocin, ART-558, and RP6685) were evaluated both individually and in combination with standard of care and investigational anticancer small molecules within a complex spheroid model of solid tumors. . Complex spheroids include a stromal component modeled by human endothelial cells (HUVEC) and fibroblasts modeled by human mesenchymal stem cells (MSCs). The concentration ranges selected for each drug and investigational agent were based upon clinically achievable concentrations if the clinical Cmax of the agent was known.
Compounds. The drugs and investigational agents: novobiocin (NSC847541), ART-558 (NSC835418), RP-6685 (NSC848927), peposertib (NSC802822), ceralasertib (NSC780249), elimusertib (NSC800525), camonsertib (NSC841442), AZD-1390 (NSC803789), olaparib (NSC753686), talazoparib (NSC767125), rucaparib (NSC756644), sotorasib (NSC818433), MRTX-1133 (NSC836407), SN-38 (NSC673596), topotecan (NSC609699), epotoside (NSC141540), doxorubicin (NSC123127), gemcitabine (NSC613327), 5-fluorouracil (NSC19893), paclitaxel (NSC125973), vemurafenib (NSC761431), MSA-2 (NSC828583), SN-011 (NSC837082), adavosertib (NSC754352), prexasertib (NSC758257), carboplatin (NSC241240) and oxaliplatin (NSC266046), were obtained from the National Cancer Institute (NCI) Developmental Therapeutics Program Chemical Repository (21). The FDA-approved anticancer drug set is available from the Developmental Therapeutics Program at https://dtp.cancer.gov/organization/dscb/obtaining/. […] The stock solutions were prepared in dimethyl sulfoxide (DMSO, Sigma-Aldrich, St. Louis, MO, cat. D2650), except for the platinum compounds which were prepared in saline (Quality Biological, Gaithersburg, MD, cat. 114-055-101), at 800-fold the tested concentration and stored at -70 degrees C prior to their use. All drugs and investigational agents were tested over a range starting from a high concentration at or near the clinical Cmax and decreasing in half-log increments. If the clinical Cmax for an agent had not been determined, the highest concentration tested was 10 microM, except for SN-38, which was tested at a high concentration of 1 microM.
Cell Culture. All cells were maintained in an incubator at 37 degrees C and 5% CO2 with 95% humidity. The PDC lines were cultured according to standard operating procedures established by the NCI PDMR (https://pdmr.cancer.gov). Table 3 of the manuscript, lists the cell lines along with the number of the three cell types plated to form the mct-spheroids and media for tumor cell growth. After thawing, all PDC lines, except 997537-175-T-J1-PDC and 415267-285-R-J2-PDC, were cultured in Matrigel-coated flasks prepared with a working solution of 1X Ham's F-12 nutrient mix, without supplementation (Thermo Fisher Scientific, cat. 11765054), 100 U/mL penicillin-streptomycin (Thermo Fisher Scientific, cat. 15140122), and 2.5% Matrigel (Corning Inc., Corning, NY, cat. 354248) for the first three passages. The two PDC lines 997537-175-T-J1-PDC and 415267-285-R-J2-PDC were cultured on uncoated flasks. The 857933-349-R-J2-PDC line was cultured in 6C/Colon 1B media containing advanced DMEM/F-12 (Thermo Fisher Scientific, cat. 12634028), 10 mM HEPES (Thermo Fisher Scientific, cat. 15630080), 1X GlutaMAX supplement (Thermo Fisher Scientific, cat. 35050061), 0.1 mg/mL primocin (InvivoGen, San Diego, CA, cat. ant-pm-2), 10% defined fetal bovine serum, heat inactivated (HyClone Laboratories Inc., Logan, UT, cat. SH30070.03HI), 50% L-WRN conditioned media (ATCC, cat. CRL-3276), 1.25 mM N-Acetyl-L-cysteine (Sigma-Aldrich, cat. A9165), 10 mM nicotinamide (Sigma-Aldrich, cat. N0636), 1X B-27 supplement (Thermo Fisher Scientific, cat. 17504044), 1X N-2 supplement (Thermo Fisher Scientific, cat. […]

Where [1] appears, read: compound alone, run of 10/31/2023.
[2] abbreviates: compound alone, run of 11/06/2023.

Several values for one entry are separate records, joined by “and”; a condition that tells them apart may be missing. Equal entries are not always repeated.
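Also: spheroids exposed to drugs for 7 days.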

`C#Cc1c(F)ccc2cc(O)cc(-c3ncc4c(N5CC6CCC(C5)N6)nc(OCC56CCCN5CC(F)C6)nc4c3F)c12` (stereo not given): the viability, T/C (compound 0.0316 µM) is 78.6% and 88.4% and 92.6%; the viability, T/C (compound 0.1 µM) was 114% and 85.9% and 77.6%; the viability, T/C (compound 0.316 µM) was 100% and 90.5% and 92%; the viability, T/C (compound 1 µM) was 85.9% and 83.8% and 79.2%; the viability, T/C (compound 3.16 µM) is 77.8% and 81.5% and 90.7%; the viability, T/C (compound 10 µM) is 12.6% and 21.5% and 6.41%. Besides, where the note is “curve of compound”, the 50% inhibitory concentration (IC50) is 5.08 µM and 5.79 µM and 5.34 µM.

Turning to `C=CC(=O)N1CCN(c2nc(=O)n(-c3c(C)ccnc3C(C)C)c3nc(-c4c(O)cccc4F)c(F)cc23)C(C)C1` (stereo not given), the viability, T/C is 127% and 82.1% and 87.4% (compound 0.0316 µM); 72.6% and 95.5% and 105% (compound 0.1 µM); 121% and 63.8% and 132% (compound 0.316 µM); 101% and 104% and 100% (compound 1 µM); 102% and 93.9% and 110% (compound 3.16 µM); 120% and 102% and 100% (compound 10 µM). Further, the half-inhibitory concentration (IC50) (curve of compound) was over 10 µM.

`CC(C)n1c(=O)n(C)c2cnc3cc(F)c(-c4ccc(OCCCN5CCCCC5)nc4)cc3c21`: the viability, T/C (compound 0.0316 µM) is 95.4% and 78.5% and 82.5%; the viability, T/C (compound 0.1 µM) was 86.1% and 90.5% and 82.5%; the viability, T/C (compound 0.316 µM) was 93.8% and 117% and 70.9%; the viability, T/C (compound 1 µM) is 86.5% and 77.2% and 84.3%; the viability, T/C (compound 3.16 µM) is 56.9% and 68.1% and 62.2%; the viability, T/C (compound 10 µM) was 21.2% and 41.8% and 25.7%. Also, the half-maximal inhibitory concentration (IC50) (curve of compound) is 3.94 µM and 6.87 µM and 4.65 µM.

Take `CC1COCCN1c1cc(-c2ccnn2C)c2ccnc(-c3ccn[nH]3)c2n1` (stereo not given): the viability, T/C is, setting by setting: (compound 0.0316 µM) 68% and 74.9% and 58.3%; (compound 0.1 µM) 37.9% and 28.1% (2×); (compound 0.316 µM) 24.9% and 25.2% and 20.4%; (compound 1 µM) 17.2% and 25.2% and 29.2%; (compound 3.16 µM) 15.5% and 20.5% and 13.3%; (compound 10 µM) 10.3% and 16% and 14.4%. The IC50 (curve of compound) was 0.064 µM and 0.0587 µM and 0.0437 µM.

With `CC1COCCN1c1cc(C2(O)CC3CCC(C2)O3)c2cnn(-c3ccn[nH]3)c2n1` (stereo not given), the viability, T/C is 38.3% and 52.8% and 44.6% (compound 0.0316 µM); 16.8% and 26.7% and 40.6% (compound 0.1 µM); 18.2% and 26.2% and 20% (compound 0.316 µM); 23.1% and 20.1% and 17.9% (compound 1 µM); 9.3% and 14.8% and 12% (compound 3.16 µM); 6.01% and 4.54% and 7.55% (compound 10 µM). Under “curve of compound”, the IC50 was under 0.0316 µM.

With `CC1COCCN1c1cc(C2(S(C)(=N)=O)CC2)nc(-c2ccnc3[nH]ccc23)n1` (stereo not given), the viability, T/C was 106% and 105% and 113% (compound 0.0316 µM); 112% and 97.5% and 98.7% (compound 0.1 µM); 90.5% and 86.8% and 93.9% (compound 0.316 µM); 70.6% and 57.9% and 68.7% (compound 1 µM); 42% and 44.5% and 52% (compound 3.16 µM); 56.6% and 52.9% and 32.3% (compound 10 µM). The IC50 (curve of compound) is 8.06 µM and 2.89 µM and 3.41 µM.

For `CCCS(=O)(=O)Nc1ccc(F)c(C(=O)c2c[nH]c3ncc(-c4ccc(Cl)cc4)cc23)c1F`, the viability, T/C (compound 0.0316 µM) was 77.1% and 111% and 98.1%; the viability, T/C (compound 0.1 µM) is 88.1% and 101% and 79.8%; the viability, T/C (compound 0.316 µM) is 101% and 93.3% and 103%; the viability, T/C (compound 1 µM) was 123% and 91.3% and 106%; the viability, T/C (compound 3.16 µM) was 93.8% and 70.6% and 69.6%; the viability, T/C (compound 10 µM) was 15.7% and 25% and 19.7%. For the setting “curve of compound”, the IC50 is 6.05 µM and 5.24 µM and 4.97 µM.

As for `CCc1cc2c(N3CCc4c(cc(Cn5ccnc5)cc4-c4cn(C)nc4C(F)(F)F)C3=O)cc(C)nc2c(OC)n1`, the viability, T/C (compound 0.0316 µM) was 79% and 66% and 74.7%; the viability, T/C (compound 0.1 µM) is 78.9% and 75.4% and 75.9%; the viability, T/C (compound 0.316 µM) is 90.3% and 75% and 87.3%; the viability, T/C (compound 1 µM) is 93.3% and 71.1% and 84.3%; the viability, T/C (compound 3.16 µM) was 74.8% and 70.8% and 89.7%; the viability, T/C (compound 10 µM) was 72% and 68.3% and 85.2%. Under “curve of compound”, the IC50 is over 10 µM.

On to `CCc1cc2c(N3CCc4c(cc(Cn5ccnc5)cc4-c4cn(C)nc4C(F)(F)F)C3=O)ccnc2c(OC)n1`, for which the viability, T/C is 89.4% and 91.8% and 73.3% (compound 0.0316 µM); 85.4% and 86.5% and 82.3% (compound 0.1 µM); 85.9% and 66.4% and 74.3% (compound 0.316 µM); 88.4% and 84% and 76.2% (compound 1 µM); 80.5% and 83.7% and 102% (compound 3.16 µM); 76% and 62.5% and 43% (compound 10 µM). Further, the IC50 (curve of compound) is > 10 µM and 8.11 µM.

As to `COC1C(OC(N)=O)C(O)C(Oc2ccc3c(O)c(NC(=O)c4ccc(O)c(CC=C(C)C)c4)c(=O)oc3c2C)OC1(C)C` (stereo not given), the half-maximal inhibitory concentration (IC50) under setting [1] is over 10 µM.

For `COc1cc2cc(C(=O)CCC(=O)O)sc2cc1OC`, the viability, T/C reads like this: (compound 0.0316 µM) 75.1% and 90.9% and 96.1%; (compound 0.1 µM) 84.1% and 72% and 94.5%; (compound 0.316 µM) 85.4% and 111% and 76.8%; (compound 1 µM) 88.2% and 64.1% and 113%; (compound 3.16 µM) 96% and 104% and 75.2%; (compound 10 µM) 95.3% and 89.2% and 61.4%. Further, where the note is “curve of compound”, the concentration for half-maximal inhibition (IC50) is over 10 µM.

`COc1ccc([C@@H](O)c2cc(-c3ncnc4cc(N5CCOCC5)ccc34)c(F)cc2Cl)nn1`: the viability, T/C runs as follows: (compound 0.0316 µM) 115% and 94.1% and 79.4%; (compound 0.1 µM) 91.2% and 92.7% and 91%; (compound 0.316 µM) 81.5% and 95.9% and 99.5%; (compound 1 µM) 49.6% and 78.9% and 67.1%; (compound 3.16 µM) 59.4% and 74.8% and 59%; (compound 10 µM) 43.6% and 27.3% and 43.8%. The IC50 (curve of compound) is 4.11 µM and 5.57 µM and > 10 µM.

With `Cc1cccc(N(C)C(=O)C2C(O)CCN2c2nc(C)cc(C(F)(F)F)c2C#N)c1` (stereo not given), for the setting “compound 0.1 µM”, the viability, T/C was 93.6% [middle of 13 runs]. Further, the half-maximal inhibitory concentration (IC50) under setting [1] was over 10 µM and the half-inhibitory concentration (IC50) under setting [2] is over 10 µM.

As to `Nc1ccc(C#CCN(C(=O)Cc2ncc(C(F)(F)F)cc2C(F)(F)F)c2ccc(F)cc2)nn1`, for the setting “compound 10 µM”, the viability, T/C was 94.6% [middle of 13 runs]. Also, the IC50 under setting [2] was over 10 µM.

On to `O=C(Nc1ccc(O)c(NS(=O)(=O)c2ccc(F)cc2)c1)c1ccc(-c2ccccc2)cc1`, for which the viability, T/C by setting is: (compound 0.0316 µM) 68.8% and 116% and 90.9%; (compound 0.1 µM) 87.8% and 77.9% and 78.2%; (compound 0.316 µM) 83.3% and 91.7% and 96%; (compound 1 µM) 80.3% and 100% and 96.6%; (compound 3.16 µM) 89.9% and 85.7% and 90.8%; (compound 10 µM) 39% and 46.8% and 25.6%. For the same molecule, the IC50 (curve of compound) is 7.46 µM and 9.19 µM and 6.49 µM.

What is called viability, T/C is the ratio of treated to control. The term IC50 denotes the concentration that gives 50% inhibition.

(Values after PubChem BioAssay AID1963827 (Molecular Pharmacology Branch, DTP, NCI, 2024).)
